US5827516A, “Immunomodulatory peptides” (President and Fellows of Harvard College, priority 1995, dated 1998)
Ends that are not written are not given here.

What was measured:
[1] = molecular target: T1, HLA-DR1 (Homo sapiens, UniProt P01903+P01911, A100R/D57E/F55L/F60I/F76Y/I96L/L162R/M171V/P40L/Q125E/R42F/V115G/Y59C); assay: Resistance to SDS-induced chain dissociation of HLA-DR1 (SDS-PAGE); format: binding
T1 construct: made in house; host or cells: Sf9 insect cells

[2] = molecular target: T1, HLA-DR1; assay: Competition against 125I-labeled HA 307-319 for binding to "empty" HLA-DR1

| Ki [2] | Compound | other results |
| --- | --- | --- |
|  | CSCC[C@H](NC(=O)[C@H](CCCNC(=N)N)NC(=O)[C@H](CCSC)NC(=O)[C@H](CCCCN)NC(=O)[C@H](CO)NC(=O)[C@@H](NC(=O)[C@@H]1CCCN1C(=O)[C@H](CCCCN)NC(=O)[C@@H]1CCCN1C(=O)[C@@H]1CCCN1C(=O)[C@H](CCCCN)NC(=O)[C@@H]1CCCN1C(=O)[C@@H](N)CC(C)C)C(C)C)C(=O)N[C@@H](C)C(=O)N[C@H](C(=O)O)[C@@H](C)O [Ii 97-111, reference compound] | able to confer resistance to SDS-induced α-β chain dissociation of "empty" DR1 [1]: Neither; able to compete with HA 307-319 for binding to DR1 [2]: Neither |
| 0.068 ± 0.009 µM | IPADLRIISANGCKVDNS [Na+/K+ ATPase 199-216] |  |
|  | Ii 107-120: Ii peptide named in the text as the highest-affinity competitor; probably the Ii 106-120 entry of Table 2 (MRMATPLLMQALPM) | relative binding affinity to DR1 among competitor peptides ([2]; at first approximation, equivalent to control HA peptide): highest affinity of all the competitor peptides measured |
| < 0.01 µM | KMRMATPLLMQALPM [Ii 106-120] |  |
| > 10 µM | SDLSFSKDWSFYL [β2 m 52-64, reference compound] |  |
| 0.049 ± 0.003 µM | VGSDWRFLRGYHQYA [HLA-A2 103-117] |  |

| Compound | Ki [2] | other results |
| --- | --- | --- |
| LPKPPKPVSKMRMATPLLMQALPM [Ii 98-121] | 0.033 ± 0.005 µM |  |
| RVEYHFLSPYVSPKESP [Transf. Recept. 680-696] | < 0.01 µM |  |
